# Test results taken from ChEMBL document CHEMBL3885861, “Open TG-GATES”.
# *1 amine or outer side, *2 acyl side, *3 side chain or, on linkers, in order; H or OH if unused. Where a SMILES comes first, the peptide text is derived from it. Bridges are numbered along the chain shown (N, C = ends). [ ]: non-standard residue; d: D form. Trp(2-yl) = O=C([C@H](Cc1c([*:3])[nH]c2ccccc12)N[*:1])[*:2]; Leu(4R-OH,5-OH) = C[C@](O)(CO)C[C@H](N)C(=O)O; cisHyp = O=C(O)[C@@H]1C[C@H](O)CN1
# Species: Rattus norvegicus
# Assay: Open TG-GATES - Regimen: Single
# Assay type: toxicity, organism-based, Sprague-Dawley
# Set-up: regimen Single, gender Male, age 6 weeks
# Details: in vivo, ip, 0 mg/kg, route intraperitoneal injection, dose level Control; for APTT / Bas / Eos / Fbg / Hb / Ht / Lym / MCH / MCHC / MCV / Mono / Neu / PT / Plat / RBC / Ret / WBC: tissue Blood; for KIDNEY_L / KIDNEY_R / KIDNEY_TOTAL: tissue Kidney; for LIVER: tissue Liver; for A/G / ALP / ALT / AST / BUN / CRE / Ca / Cl / DBIL / GLC / IP / K / LDH / Na / PL / RALB / TBIL / TC / TG / TP / gamma-GTP: tissue Plasma
smiles,measurement,setting,value
"C[C@@H]1NC(=O)[C@H](C[C@@](C)(O)CO)NC(=O)[C@@H]2Cc3c([nH]c4ccccc34)SC[C@H](NC(=O)[C@@H]([C@H](C)O)NC1=O)C(=O)N1C[C@@H](O)C[C@H]1C(=O)N[C@@H](C)C(=O)N2 [PHALLOIDIN] (cyclo(A[dT]C[cisHyp]A[Trp(2-yl)][Leu(4R-OH,5-OH)]); thioether 3-6)",TERMINAL_BW,3 h,206 g
same,APTT,3 h,23.6 s
same,Bas,3 h,0%
same,Eos,3 h,0.2%
same,Fbg,3 h,283.8 mg/dL
same,Hb,3 h,12.9 g/dL
same,Ht,3 h,40.5%
same,Lym,3 h,73.8%
same,MCH,3 h,20.1 pg
same,MCHC,3 h,32%
same,MCV,3 h,62.8 fL
same,Mono,3 h,2.4%
same,Neu,3 h,22.8%
same,PT,3 h,16.1 s
same,Plat,3 h,112.9 x10_4/uL
same,RBC,3 h,645 x10_4/ul
same,Ret,3 h,7.5%
same,WBC,3 h,74.9 x10_2/uL
same,KIDNEY_L,3 h,0.9 g
same,KIDNEY_R,3 h,0.9 g
same,KIDNEY_TOTAL,3 h,1.8 g
same,LIVER,3 h,8.6 g
same,A/G,3 h,1.2
same,ALP,3 h,1620.6 IU/L
same,ALT,3 h,45.2 IU/L
same,AST,3 h,76.4 IU/L
same,BUN,3 h,11.2 mg/dL
same,CRE,3 h,0.2 mg/dL
same,Ca,3 h,10.4 mg/dL
same,Cl,3 h,108.6 meq/L
same,DBIL,3 h,0 mg/dL
same,GLC,3 h,187.8 mg/dL
same,IP,3 h,8.4 mg/dL
same,K,3 h,3.8 meq/L
same,LDH,3 h,165.2 IU/L
same,Na,3 h,141.8 meq/L
same,PL,3 h,132 mg/dL
same,RALB,3 h,2.8 g/dL
same,TBIL,3 h,0 mg/dL
same,TC,3 h,81 mg/dL
same,TG,3 h,66.2 mg/dL
same,TP,3 h,5.2 g/dL
same,gamma-GTP,3 h,1 IU/L
same,TERMINAL_BW,6 h,208.8 g
same,APTT,6 h,22.5 s
same,Bas,6 h,0%
same,Eos,6 h,0.4%
same,Fbg,6 h,305.6 mg/dL
same,Hb,6 h,12.5 g/dL
same,Ht,6 h,38.7%
same,Lym,6 h,79.6%
same,MCH,6 h,20.4 pg
same,MCHC,6 h,32.2%
same,MCV,6 h,63.4 fL
same,Mono,6 h,1.8%
same,Neu,6 h,17.2%
same,PT,6 h,16 s
same,Plat,6 h,126.1 x10_4/uL
same,RBC,6 h,611.2 x10_4/ul
same,Ret,6 h,7.3%
same,WBC,6 h,94.6 x10_2/uL
same,KIDNEY_L,6 h,0.9 g
same,KIDNEY_R,6 h,0.9 g
same,KIDNEY_TOTAL,6 h,1.8 g
same,LIVER,6 h,9.1 g
same,A/G,6 h,1.2
same,ALP,6 h,1368 IU/L
same,ALT,6 h,38 IU/L
same,AST,6 h,69 IU/L
same,BUN,6 h,15.6 mg/dL
same,CRE,6 h,0.2 mg/dL
same,Ca,6 h,10.5 mg/dL
same,Cl,6 h,106.2 meq/L
same,DBIL,6 h,0 mg/dL
same,GLC,6 h,195.8 mg/dL
same,IP,6 h,7.8 mg/dL
same,K,6 h,4.2 meq/L
same,LDH,6 h,168.6 IU/L
same,Na,6 h,141.2 meq/L
same,PL,6 h,137 mg/dL
same,RALB,6 h,2.8 g/dL
same,TBIL,6 h,0 mg/dL
same,TC,6 h,82 mg/dL
same,TG,6 h,63 mg/dL
same,TP,6 h,5.2 g/dL
same,gamma-GTP,6 h,1.4 IU/L
same,TERMINAL_BW,9 h,208.4 g
same,APTT,9 h,22.5 s
same,Bas,9 h,0%
same,Eos,9 h,0.4%
same,Fbg,9 h,290.4 mg/dL
same,Hb,9 h,12.5 g/dL
same,Ht,9 h,39.2%
same,Lym,9 h,79.4%
same,MCH,9 h,20.4 pg
same,MCHC,9 h,31.9%
same,MCV,9 h,63.8 fL
same,Mono,9 h,1.6%
same,Neu,9 h,18%
same,PT,9 h,15.9 s
same,Plat,9 h,120.7 x10_4/uL
same,RBC,9 h,613.6 x10_4/ul
same,Ret,9 h,7.1%
same,WBC,9 h,83.1 x10_2/uL
same,KIDNEY_L,9 h,0.9 g
same,KIDNEY_R,9 h,1 g
same,KIDNEY_TOTAL,9 h,1.9 g
same,LIVER,9 h,9.2 g
same,A/G,9 h,1.2
same,ALP,9 h,1788.6 IU/L
same,ALT,9 h,45.2 IU/L
same,AST,9 h,75.4 IU/L
same,BUN,9 h,13.4 mg/dL
same,CRE,9 h,0.2 mg/dL
same,Ca,9 h,10.5 mg/dL
same,Cl,9 h,105 meq/L
same,DBIL,9 h,0 mg/dL
same,GLC,9 h,202.8 mg/dL
same,IP,9 h,7.7 mg/dL
same,K,9 h,4.3 meq/L
same,LDH,9 h,145.6 IU/L
same,Na,9 h,140.8 meq/L
same,PL,9 h,134.8 mg/dL
same,RALB,9 h,2.9 g/dL
same,TBIL,9 h,0.004 mg/dL
same,TC,9 h,79 mg/dL
same,TG,9 h,71.2 mg/dL
same,TP,9 h,5.3 g/dL
same,gamma-GTP,9 h,1.4 IU/L
same,TERMINAL_BW,24 h,216 g
same,APTT,24 h,22.7 s
same,Bas,24 h,0%
same,Eos,24 h,0.6%
same,Fbg,24 h,321.6 mg/dL
same,Hb,24 h,12.3 g/dL
same,Ht,24 h,38.4%
same,Lym,24 h,83.8%
same,MCH,24 h,20.3 pg
same,MCHC,24 h,32.1%
same,MCV,24 h,63.4 fL
same,Mono,24 h,1.6%
same,Neu,24 h,13.4%
same,PT,24 h,16 s
same,Plat,24 h,120 x10_4/uL
same,RBC,24 h,606.2 x10_4/ul
same,Ret,24 h,7.7%
same,WBC,24 h,76.3 x10_2/uL
same,KIDNEY_L,24 h,1 g
same,KIDNEY_R,24 h,1 g
same,KIDNEY_TOTAL,24 h,2 g
same,LIVER,24 h,9.4 g
same,A/G,24 h,1.2
same,ALP,24 h,1563.4 IU/L
same,ALT,24 h,40.8 IU/L
same,AST,24 h,69 IU/L
same,BUN,24 h,14 mg/dL
same,CRE,24 h,0.2 mg/dL
same,Ca,24 h,10.5 mg/dL
same,Cl,24 h,105.4 meq/L
same,DBIL,24 h,0.002 mg/dL
same,GLC,24 h,196 mg/dL
same,IP,24 h,8.9 mg/dL
same,K,24 h,3.9 meq/L
same,LDH,24 h,182.4 IU/L
same,Na,24 h,141.6 meq/L
same,PL,24 h,144.2 mg/dL
same,RALB,24 h,2.9 g/dL
same,TBIL,24 h,0.002 mg/dL
same,TC,24 h,85.6 mg/dL
same,TG,24 h,55.4 mg/dL
same,TP,24 h,5.3 g/dL
same,gamma-GTP,24 h,1.8 IU/L
